Source: patent publication EP0934303B1, “COMPOUNDS USEFUL FOR INHIBITION OF FARNESYL PROTEIN TRANSFERASE” (SCHERING CORPORATION, priority 1996, dated 1998)
Where two headings read alike, the source gives them in different places.

Assays:
[1] = biological target: farnesyl protein transferase (Homo sapiens, UniProt P49354+P49356); test: FPT IC50, inhibition of farnesyl protein transferase, in vitro enzyme assay (procedure of WO 95/10516); format: biochemical; settings: one range stated for the whole list of compounds
Chain of farnesyl protein transferase (P49356 whole entry, one chain of several): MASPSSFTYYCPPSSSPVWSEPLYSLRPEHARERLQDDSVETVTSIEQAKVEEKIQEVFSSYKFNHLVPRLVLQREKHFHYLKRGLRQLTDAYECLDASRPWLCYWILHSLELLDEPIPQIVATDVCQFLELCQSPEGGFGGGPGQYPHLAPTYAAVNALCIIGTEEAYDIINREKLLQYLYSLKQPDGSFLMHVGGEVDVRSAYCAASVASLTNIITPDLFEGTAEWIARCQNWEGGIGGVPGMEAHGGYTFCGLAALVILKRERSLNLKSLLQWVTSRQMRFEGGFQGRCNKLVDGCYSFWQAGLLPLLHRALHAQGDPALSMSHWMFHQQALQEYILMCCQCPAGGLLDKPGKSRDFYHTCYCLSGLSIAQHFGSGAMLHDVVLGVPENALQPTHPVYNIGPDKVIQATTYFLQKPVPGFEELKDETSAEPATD
Protocol: (§1) FPT IC50 (inhibition of farnesyl protein transferase, in vitro enzyme assay), GGPT IC50 (inhibition of geranylgeranyl protein transferase, in vitro enzyme assay) and COS Cell IC50 (Cell-Based Assay) were determined following the assay procedures described in WO 95/10516, published April 20, 1995. Cell Mat Assay, and anti-tumor activity (in vivo anti-tumor studies) could be determined by the assay procedures described in WO 95/10516. The disclosure of WO 95/10516 is incorporated herein by reference thereto.

COS Cell = COS Cell IC50 (Cell-Based Assay, procedure of WO 95/10516); settings: one range stated for the whole list of compounds
Protocol: as §1

Human tumor cells = test: Soft Agar Assay (anchorage-independent growth, colony count after MTT staining); format: cell-based; settings: one range stated for the whole list of compounds
Protocol: Anchorage-independent growth is a characteristic of tumorigenic cell lines. Human tumor cells are suspended in growth medium containing 0.3% agarose and an indicated concentration of a farnesyl transferase inhibitor. The solution is overlayed onto growth medium solidified with 0.6% agarose containing the same concentration of farnesyl transferase inhibitor as the top layer. After the top layer is solidified, plates are incubated for 10-16 days at 37°C under 5% CO2 to allow colony outgrowth. After incubation, the colonies are stained by overlaying the agar with a solution of MTT (3-[4,5-dimethylthiazol-2-yl]-2,5-diphenyltetrazolium bromide, Thiazolyl blue) (1 mg/mL in PBS). Colonies can be counted and the IC50's can be determined.

[2] = biological target: geranylgeranyl protein transferase (Rattus norvegicus, UniProt P53610+Q04631); test: GGPT IC50, inhibition of geranylgeranyl protein transferase, in vitro enzyme assay (procedure of WO 95/10516); format: biochemical
Protocol: as §1

[3] = H-ras, read-out: FPT IC50 (H-ras)
[4] = K-ras, read-out: FPT IC50 (K-ras)

IC50 [1, 3] [nM]	IC50 [1, 4] [nM]	IC50 [2] [nM]	Structure (SMILES)	IC50 (COS Cell) [nM]	IC50 (Human tumor cells) [nM]
≥ 0.8			N=C(Oc1ccccc1)N1CCC(CC(=O)N2CCC(C3c4ccc(Cl)c(Br)c4CCc4cc(Br)cnc43)CC2)CC1 (racemic) [Compound 26.0]		
≥ 0.8			N#CN=C(Oc1ccccc1)N1CCC(CC(=O)N2CCN(C3c4ccc(Cl)cc4CCc4cc(Br)cnc43)CC2)CC1 (stereo not drawn) [Compound 2.0, PHENYL 4-[2-[4-(3-BROMO-8-CHLORO-6,11-DIHYDRO-5H-BENZO[5,6]CYCLOHEPTA[1,2-b]PYRIDIN-11-YL)-1-PIPERAZINYL]-2-OXOETHYL]-N-CYANO-1-PIPERIDINE- CARBOXIMIDATE]		
≥ 0.8			N#CNC(=N)N1CCC(CC(=O)N2CCN(C3c4ccc(Cl)cc4CCc4cc(Br)cnc43)CC2)CC1 (stereo not drawn) [Compound 3.0, 4-[2-[4-(3-BROMO-8-CHLORO-6,11-DIHYDRO-5H-BENZO[5,6]CYCLOHEPTA[1,2-b]PYRIDIN-11-YL)-1-PIPERAZINYL]-2-OXOETHYL]-N-CYANO-1-PIPERIDINE-CARBOXIMIDAMIDE]		
≥ 0.8			N=C(Oc1ccccc1)N1CCC(CC(=O)N2CCN(C3c4ccc(Cl)cc4CCc4cc(Br)cnc43)CC2)CC1 (stereo not drawn) [Compound 4.0, PHENYL 4-[2-[4-(3-BROMO-8-CHLORO-6,11-DIHYDRO-5H-BENZO[5,6]CYCLOHEPTA[1,2-b]PYRIDIN-11-YL)-1-PIPERAZINYL]-2-OXOETHYL]-1-PIPERIDINECARBOXIMIDATE]		
≥ 0.8			N=C(NS(N)(=O)=O)N1CCC(CC(=O)N2CCN(C3c4ccc(Cl)cc4CCc4cc(Br)cnc43)CC2)CC1 (stereo not drawn) [Compound 7.0, 4-[2-[4-(3-BROMO-8-CHLORO-6,11-DIHYDRO-5H-BENZO[5,6]CYCLOHEPTA[1,2-b]PYRIDIN-11-YL)-1-PIPERAZINYL]-2-OXOETHYL]-N-SULFAMOYL-1-PIPERIDINE-CARBOXIMIDAMIDE]		
≥ 0.8			NC(=O)NC(=O)N=C(Oc1ccccc1)N1CCC(CC(=O)N2CCN(C3c4ccc(Cl)cc4CCc4cc(Br)cnc43)CC2)CC1 (stereo not drawn) [Compound 16.1, PHENYL N-[[(AMINOCARBONYL)AMINO]CARBONYL]-4-[2-[4-(3-BROMO-8-CHLORO-6,11-DIHYDRO-5H-BENZO[5,6]CYCLOHEPTA-[1,2-b]PYRIDIN-11-YL)-1-PIPERAZINYL]-2-OXOETHYL]-1-PIPERIDINECARBOXIMIDATE]		
≥ 0.8			N=C(NC(=O)NC(N)=O)N1CCC(CC(=O)N2CCN(C3c4ccc(Cl)cc4CCc4cc(Br)cnc43)CC2)CC1 (stereo not drawn) [Compound 17.1, N-[[(AMINOCARBONYL)AMINO]CARBONYL]-4-[2-[4-(3-BROMO-8-CHLORO-6,11-DIHYDRO-5H-BENZO[5,6]CYCLOHEPTA[1,2-b]-PYRIDIN-11-YL)-1-PIPERAZINYL]-2-OXOETHYL]-1-PIPERIDINECARBOXIMIDAMIDE]		
			O=C(O)c1cncc(C(=O)N2CCC(CC(=O)N3CCC([C@H]4c5ncc(Br)cc5CCc5cc(Cl)cc(Br)c54)CC3)CC2)c1 [Compound 25.0-B]	≥ 7	≥ 90
			Cc1noc(C)c1C(=O)N1CCC(CC(=O)N2CCC([C@H]3c4ncc(Br)cc4CCc4cc(Cl)cc(Br)c43)CC2)CC1 [Compound 27.0-B]	≥ 7	≥ 90
≥ 0.8	16 to 782		N=C(Oc1ccccc1)N1CCC(CC(=O)N2CCC([C@H]3c4ncc(Br)cc4CCc4cc(Cl)cc(Br)c43)CC2)CC1 [Compound 27.0]	≥ 12	≥ 90
			O=C1N[C@H](C(=O)N2CCC(CC(=O)N3CCC([C@H]4c5ncc(Br)cc5CCc5cc(Cl)cc(Br)c54)CC3)CC2)CO1 [Compound 28.0-B]	≥ 7	≥ 90
≥ 0.8	16 to 782	> 9600	N#CN1CCC(CC(=O)N2CCC(C3c4ccc(Cl)c(Br)c4CCc4cc(Br)cnc43)CC2)CC1 (stereo not drawn) [Compound 28.0]	≥ 12	
			NC(=O)c1cncc(C(=O)N2CCC(CC(=O)N3CCC([C@H]4c5ncc(Br)cc5CCc5cc(Cl)cc(Br)c54)CC3)CC2)c1 [Compound 29.0-B]	≥ 7	≥ 90
≥ 0.8			N=C(N)N1CCC(CC(=O)N2CCC(C3c4ccc(Cl)c(Br)c4CCc4cc(Br)cnc43)CC2)CC1 (stereo not drawn) [Compound 30.0]	≥ 12	
			O=C(CC1CCN(C(=O)c2cn[nH]c2)CC1)N1CCC([C@H]2c3ncc(Br)cc3CCc3cc(Cl)cc(Br)c32)CC1 [Compound 31.0-B]	≥ 7	≥ 90
≥ 0.8	16 to 782	> 7500	N=C(NCc1cccnc1)N1CCC(CC(=O)N2CCC(C3c4ccc(Cl)c(Br)c4CCc4cc(Br)cnc43)CC2)CC1 (stereo not drawn) [Compound 31.0]	≥ 12	
			CC(=O)N1CCC(CC(=O)N2CCC([C@H]3c4ncc(Br)cc4CCc4cc(Cl)cc(Br)c43)CC2)CC1 [Compound 36.0-B]	≥ 7	≥ 90
≥ 0.8			CCn1cccc1C(=O)N1CCC(CC(=O)N2CCC([C@H]3c4ncc(Br)cc4CCc4cc(Cl)cc(Br)c43)CC2)CC1 [Compound 40.0-B]	≥ 7	≥ 90
			O=C(CC1CCN(C(=O)c2cc[n+]([O-])cc2)CC1)N1CCC([C@H]2c3ncc(Br)cc3CCc3cc(Cl)cc(Br)c32)CC1 [Compound 45.0-B]	≥ 7	≥ 90
			O=C(CC1CCN(C(=O)c2ccc[n+]([O-])c2)CC1)N1CCC([C@H]2c3ncc(Br)cc3CCc3cc(Cl)cc(Br)c32)CC1 [Compound 46.0-B]	≥ 7	≥ 90
			O=C(CC1CCN(C(=O)c2ccc(O)nc2)CC1)N1CCC([C@H]2c3ncc(Br)cc3CCc3cc(Cl)cc(Br)c32)CC1 [Compound 47.0-B]	≥ 7	≥ 90
			O=C(CC1CCN(C(=O)c2cccnc2O)CC1)N1CCC([C@H]2c3ncc(Br)cc3CCc3cc(Cl)cc(Br)c32)CC1 [Compound 48.0-B]	≥ 7	≥ 90
			CC(=O)OC1CCC(C(=O)N2CCC(CC(=O)N3CCC(C4c5ncc(Br)cc5CCc5cc(Cl)cc(Br)c54)CC3)CC2)CC1 (stereo not drawn) [Compound 66.0-B]	≥ 7	≥ 90
			O=C1C[C@@H](C(=O)N2CCC(CC(=O)N3CCC([C@H]4c5ncc(Br)cc5CCc5cc(Cl)cc(Br)c54)CC3)CC2)NC(=O)N1 [Compound 78.0-B]	≥ 7	≥ 90
			O=C(CC1CCN(C(=O)[C@@H]2CSCN2)CC1)N1CCC([C@H]2c3ncc(Br)cc3CCc3cc(Cl)cc(Br)c32)CC1 [Compound 80.0-B]		≥ 90
			O=C(CC1CCN(C(=O)c2ncccc2O)CC1)N1CCC([C@H]2c3ncc(Br)cc3CCc3cc(Cl)cc(Br)c32)CC1 [Compound 83.0-B]	≥ 7	≥ 90
			O=C(CC1CCN(C(=O)c2ccoc2)CC1)N1CCC([C@H]2c3ncc(Br)cc3CCc3cc(Cl)cc(Br)c32)CC1 [Compound 84.0-B]	≥ 7	≥ 90
			O=C(CC1CCN(C(=O)N2CCOCC2)CC1)N1CCC([C@H]2c3ncc(Br)cc3CCc3cc(Cl)cc(Br)c32)CC1 [Compound 100.0-B]	≥ 7	≥ 90

Structure (SMILES)	IC50 [1, 3] [nM]	IC50 [1, 4] [nM]	IC50 [2] [nM]	IC50 (COS Cell) [nM]	IC50 (Human tumor cells) [nM]
N#CN1CCC(CC(=O)N2CCN(C3c4ccc(Cl)cc4CCc4cc(Br)cnc43)CC2)CC1 (stereo not drawn) [Compound 5.0]	≥ 0.8				
NC(=NO)N1CCC(CC(=O)N2CCN(C3c4ccc(Cl)cc4CCc4cc(Br)cnc43)CC2)CC1 (stereo not drawn) [Compound 12.0, 4-[2-[4-(3-BROMO-8-CHLORO-6,11-DIHYDRO-5H-BENZO[5,6]CYCLOHEPTA[1,2-b]PYRIDIN-11-YL)-1-PIPERAZINYL]-2-OXOETHYL]-N-HYDROXY-1-PIPERIDINECARBOXIMIDATE]	≥ 0.8				
CON=C(N)N1CCC(CC(=O)N2CCN(C3c4ccc(Cl)cc4CCc4cc(Br)cnc43)CC2)CC1 (stereo not drawn) [Compound 13.0, 4-[2-[4-(3-BROMO-8-CHLORO-6,11-DIHYDRO-5H-BENZO[5,6]CYCLOHEPTA[1,2-b]PYRIDIN-11-YL)-1-PIPERAZINYL]-2-OXOETHYL]-N-METHOXY-1-PIPERIDINE-CARBOXIMIDATE]	≥ 0.8				
N#CN1CCC(CC(=O)N2CCC([C@H]3c4ncc(Br)cc4CCc4cc(Cl)cc(Br)c43)CC2)CC1 [Compound 29.0]	≥ 0.8			≥ 12	
